Test results published in patent US12522587B2, “Cancer treatments targeting cancer stem cells” (Remedy Plan, Inc., priority 2018, dated 2026).

test system: AGS cells; experiment: Cell viability in AGS cells (CellTiter Glo2, 8-point dose response, 4 days); assay type: cell-based, human; details: not given
Method: AGS cells were treated with DMSO (no drug control) or each compound in Table 5 in an 8-point dose response for 4 days. Cell viability was measured using CellTiter Glo2. The IC50 of each compound was determined using CDD Vault.

Going from `CC(=O)N1CCCc2cc(-c3ccc(C(=O)NCc4cccnc4)cc3)ccc21` [Compound I-46, 4-(1-acetyl-1,2,3,4-tetrahydroquinolin-6-yl)-N-(pyridin-3-ylmethyl)benzamide] to `CCC(=O)N1CCc2cc(-c3ccc(C(=O)NCc4cccnc4)nc3)ccc21` [Compound I-55, 5-(1-propionylindolin-5-yl)-N-(pyridin-3-ylmethyl)picolinamide], the IC50 falls from greater than 18.3 µM to 3.66 µM. The second is the more potent here.

Compared with `CCC(=O)N1CCc2cc(-c3ccc(C(=O)NCc4cccnc4)cc3OC)ccc21` [Compound I-94, 3-methoxy-4-(1-propionylindolin-5-yl)-N-(pyridin-3-ylmethyl)benzamide], `CCC(=O)N1CCc2cc(-c3ccc(C(=O)NCc4ccccn4)cc3)ccc21` [Compound I-185, 4-(1-propionylindolin-5-yl)-N-(pyridin-2-ylmethyl)benzamide] is 2.4-fold higher in IC50: 8.71 µM for the first, 21 µM for the second.

same assay, conditions: Homo sapiens, 96 h

In the case of `CCC(=O)N1CCc2cc(-c3ccc(C(=O)N(C)Cc4cccnc4)cc3)ccc21` [Compound I-62, N-methyl-4-(1-propionylindolin-5-yl)-N-(pyridin-3-ylmethyl)benzamide], the IC50 is reported as 29.3 µM.

same assay, conditions: Homo sapiens, AGS, 96 h

`CCC(=O)N1CCc2cc(-c3ccc(C(=O)NC(C)c4cccnc4)cc3)ccc21` (centres unmarked) [Compound I-57, 4-(1-propionylindolin-5-yl)-N-(1-(pyridin-3-yl)ethyl)benzamide] and `CCC(=O)N1CCc2cc(-c3ccc(C(=O)NC(C)c4ccccc4)cc3)ccc21` (centres unmarked) [Compound I-160] cannot be ordered by IC50: greater than 28.2 µM for the first, greater than 30 µM for the second.

Compared with `CCC(=O)N1CCc2cc(-c3ccc(C(=O)Nc4cccnc4)cc3)ccc21` [Compound I-74], `CCC(=O)N1CCc2cc(-c3ccc(C(=O)NC(C)(C)c4cccnc4)cc3)ccc21` [Compound I-58, 4-(1-propionylindolin-5-yl)-N-(2-(pyridin-3-yl)propan-2-yl)benzamide] is higher in IC50: 6.61 µM for the first, greater than 30 µM for the second.

Going from `CCC(=O)N1CCc2cc(-c3ccc(C(=O)NCc4ccc(Cl)cc4)cc3)ccc21` [Compound I-176] to `CCC(=O)N1CCc2cc(-c3ccc(C(=O)NCc4ccc(F)cc4)cc3)ccc21` [Compound I-179], the IC50 rises from 25.8 µM to greater than 30 µM. The first is the more potent here.

Going from `CCC(=O)N1CCc2cc(-c3cccc(C(=O)NCc4cccnc4)c3)ccc21` [Compound I-50, 3-(1-propionylindolin-5-yl)-N-(pyridin-3-ylmethyl)benzamide] to `CCC(=O)N1CCc2cc(-c3ccc(C(=O)NCc4cccnc4)c(O)c3)ccc21` [Compound I-210], the IC50 falls from greater than 30 µM to 3.02 µM. The second is the more potent here.

Compared with `CCC(=O)N(C)c1ccc(-c2ccc(S(=O)(=O)NCc3cccnc3)cc2)cc1` [Compound I-226], `CCCC(=O)N(C)c1ccc(-c2ccc(C(=O)NCc3cccnc3)cc2)cc1` [Compound I-230, 4′-(N-methylbutyramido)-N-(pyridin-3-ylmethyl)-[1,1′-biphenyl]-4-carboxamide] is 2.1-fold lower in IC50: 9.76 µM for the first, 4.57 µM for the second.

`CCC(=O)N1CCc2cc(-c3ccc(C(=O)NCc4cnco4)cc3)ccc21` [Compound I-73, N-(oxazol-5-ylmethyl)-4-(1-propionylindolin-5-yl)benzamide] and `CCC(=O)N1CCc2cc(-c3ccc(C(=O)NCc4ccco4)cc3)ccc21` [Compound I-181] cannot be ordered by IC50: greater than 30 µM for the first, greater than 30 µM for the second.

Compared with `CCC(=O)N(C)c1ccc(-c2ccc(C(=O)NCc3cccnc3)cc2)cc1C` [Compound I-215, 3′-methyl-4′-(N-methylpropionamido)-N-(pyridin-3-ylmethyl)-[1,1′-biphenyl]-4-carboxamide], `CCC(=O)N(C)c1ccc(-c2ccc(C(=O)NCc3cccnc3)nc2)cc1C` [Compound I-227, 5-(3-methyl-4-(N-methylpropionamido)phenyl)-N-(pyridin-3-ylmethyl)picolinamide] is 2.9-fold higher in IC50: 1.82 µM for the first, 5.22 µM for the second. The first is the more potent here.

`CCC(=O)N1CCc2cc(-c3ccc(C(=O)NCc4ccc(OC)cc4)cc3)ccc21` [Compound I-156] and `CCC(=O)N1CCc2cc(-c3ccc(C(=O)NCc4cccc(OC)c4)cc3)ccc21` [Compound I-171] cannot be ordered by IC50: greater than 30 µM for the first, greater than 30 µM for the second.

`CCC(=O)N1CCc2cc(-c3ccc(C(=O)NCc4cccc(Cl)c4)cc3)ccc21` [Compound I-168] and `CCC(=O)N1CCc2cc(-c3ccc(C(=O)NCc4cccc(F)c4)cc3)ccc21` [Compound I-174] cannot be ordered by IC50: greater than 30 µM for the first, greater than 30 µM for the second.

`CCC(=O)N1CCc2cc(-c3ccc(C(=O)NCc4ccc(C)nc4)cc3)ccc21` [Compound I-59, N-((6-methylpyridin-3-yl)methyl)-4-(1-propionylindolin-5-yl) benzamide] and `CCC(=O)N1CCc2cc(-c3ccc(C(=O)NCc4cccnc4C)cc3)ccc21` [Compound I-61, N-((2-methylpyridin-3-yl)methyl)-4-(1-propionylindolin-5-yl)benzamide] cannot be ordered by IC50: greater than 30 µM for the first, greater than 30 µM for the second.

Compared with `CCC(=O)N1CCc2cc(-c3ccc(C(=O)NCc4cccnn4)cc3)ccc21` [Compound I-197, 4-(1-propionylindolin-5-yl)-N-(pyridazin-3-ylmethyl)benzamide], `CCC(=O)N1CCc2cc(-c3ccc(C(=O)NCc4ccccn4)cc3)ccc21` [Compound I-185, 4-(1-propionylindolin-5-yl)-N-(pyridin-2-ylmethyl)benzamide] is 1.6-fold lower in IC50: 25.2 µM for the first, 15.5 µM for the second.

Going from `CCC(=O)N(C)c1ccc(-c2ccc(C(=O)NCc3cncs3)cc2)cc1` [Compound I-235] to `CCC(=O)N(C)c1ccc(-c2ccc(C(=O)NCc3cncc(C)c3)cc2)cc1` [Compound I-237], the IC50 falls from greater than 30 µM to 6.69 µM. The second is the more potent here.

`CCC(=O)N1CCc2cc(-c3ccc(C(=O)NCc4ccncc4)cc3)ccc21` [Compound I-49, 4-(1-propionylindolin-5-yl)-N-(pyridin-4-ylmethyl)benzamide] and `CCC(=O)N1CCc2cc(-c3ccc(C(=O)NCc4ccncn4)cc3)ccc21` [Compound I-204, 4-(1-propionylindolin-5-yl)-N-(pyrimidin-4-ylmethyl)benzamide] cannot be ordered by IC50: greater than 30 µM for the first, greater than 30 µM for the second.

Going from `CCC(=O)N1CCc2cc(-c3ccc(C(=O)NCc4cn[nH]c4)cc3)ccc21` [Compound I-72, N-((1H-pyrazol-4-yl)methyl)-4-(1-propionylindolin-5-yl)benzamide] to `CCC(=O)N1CCc2cc(-c3ccc(C(=O)NCc4cncc(C)c4)cc3)ccc21` [Compound I-198, N-((5-methylpyridin-3-yl)methyl)-4-(1-propionylindolin-5-yl)benzamide], the IC50 falls from greater than 30 µM to 1.06 µM. The second is the more potent here.

`CCC(=O)N1CCc2cc(-c3ccc(C(=O)NCC4CCCC4)cc3)ccc21` [Compound I-207] and `CCC(=O)N1CCc2cc(-c3ccc(C(=O)NCC4CCCNC4)cc3)ccc21` (centres unmarked) [Compound I-63, N-(piperidin-3-ylmethyl)-4-(1-propionylindolin-5-yl)benzamide] cannot be ordered by IC50: greater than 100 µM for the first, greater than 30 µM for the second.

First: CC(=O)N1CCCc2cc(-c3ccc(C(=O)NCc4cccnc4)cc3)ccc21 [Compound I-46, 4-(1-acetyl-1,2,3,4-tetrahydroquinolin-6-yl)-N-(pyridin-3-ylmethyl)benzamide]
Second: CC(=O)N1CCc2cc(-c3ccc(C(=O)NCc4cccnc4)cc3)ccc21 [Compound I-42, 4-(1-acetylindolin-5-yl)-N-(pyridin-3-ylmethyl) benzamide]
The IC50 of the first is higher: greater than 17.5 µM for the first, 3.83 µM for the second.

Going from `CCC(=O)N(C)c1ccc(-c2ccc(C(=O)NCc3cccnc3)cn2)c(C)c1` [Compound I-246, 6-(2-methyl-4-(N-methylpropionamido)phenyl)-N-(pyridin-3-ylmethyl)nicotinamide] to `CCC(=O)N1CCc2cc(-c3ccc(C(=O)NCc4cccnc4)cc3)c(C)cc21` (single isomer, unassigned) [Compound I-203, 4-(6-methyl-1-propionylindolin-5-yl)-N-(pyridin-3-ylmethyl)benzamide], the IC50 falls from 12.1 µM to 1.54 µM (7.9-fold).

`O=C(NCc1cccnc1)c1ccc(-c2ccc3c(c2)CCN3C(=O)CO)cc1` [Compound I-47, 4-(1-(2-hydroxyacetyl)indolin-5-yl)-N-(pyridin-3-ylmethyl)benzamide] and `O=C(NCc1cccnc1)c1ccc(-c2ccc3c(c2)CCN3C(=O)C2CC2)cc1` [Compound I-220] are within 1.5-fold of each other in IC50: 3.22 µM for the first, 2.94 µM for the second.

Going from `CCC(=O)N1CCc2cc(-c3ccc(C(=O)NCc4cccnc4)cc3OC)ccc21` [Compound I-94, 3-methoxy-4-(1-propionylindolin-5-yl)-N-(pyridin-3-ylmethyl)benzamide] to `CCC(=O)N1CCc2cc(-c3ccc(C(=O)NCc4cccnc4)cc3)c(F)cc21` [Compound I-211], the IC50 falls from 7.86 µM to 1.16 µM (6.8-fold).

Compared with `CN1CCc2cc(-c3ccc(C(=O)NCc4cccnc4)cc3)ccc21` [Compound I-75, 4-(1-methylindolin-5-yl)-N-(pyridin-3-ylmethyl)benzamide], `COCCN1CCc2cc(-c3ccc(C(=O)NCc4cccnc4)cc3)ccc21` [Compound I-53, 4-(1-(2-methoxyethyl)indolin-5-yl)-N-(pyridin-3-ylmethyl)benzamide] is lower in IC50: greater than 20.6 µM for the first, 3.52 µM for the second. The second is the more potent here.

`CCC(=O)n1ccc2cc(-c3ccc(C(=O)NCc4cccnc4)cc3)ccc21` [Compound I-90, 4-(1-propionyl-1H-indol-5-yl)-N-(pyridin-3-ylmethyl)benzamide] and `CCC(=O)Nc1ccc(-c2ccc(C(=O)NCc3cccnc3)cc2)cc1` [Compound I-44, 4′-propionamido-N-(pyridin-3-ylmethyl)-[1,1′-biphenyl]-4-Carboxamide] cannot be ordered by IC50: greater than 13.3 µM for the first, greater than 30 µM for the second.

Compared with `CCC(=O)N1CCc2cc(N3CC(C(=O)NCc4cccnc4)C3)ccc21` [Compound I-209, 1-(1-propionylindolin-5-yl)-N-(pyridin-3-ylmethyl)azetidine-3-carboxamide], `CCC(=O)N1CCc2cc(-c3ccc(C(=O)NCc4cccnc4)nc3)ccc21` [Compound I-55, 5-(1-propionylindolin-5-yl)-N-(pyridin-3-ylmethyl)picolinamide] is lower in IC50: greater than 30 µM for the first, 2.89 µM for the second.

Going from `CCN(C)C(=O)c1ccc(-c2ccc(C(=O)NCc3cccnc3)cc2)cc1` [Compound I-251] to `CN(C(=O)CC#N)c1ccc(-c2ccc(C(=O)NCc3cccnc3)cc2)cc1` [Compound I-249], the IC50 rises from 1.65 µM to greater than 18.4 µM. The first is the more potent here.

`CCC(=O)N1CCc2c1ccc(-c1ccc(C(=O)NCc3cccnc3)cc1)c2F` [Compound I-213] and `CN(C(=O)c1cocn1)c1ccc(-c2ccc(C(=O)NCc3cccnc3)cc2)cc1` [Compound I-245] are within 1.5-fold of each other in IC50: 3.48 µM for the first, 5.16 µM for the second.

Compared with `CCC(=O)N(C)c1ccc(-c2ccc(C(=O)NCc3ccc(C)nc3C)cc2)cc1` [Compound I-221], `CCC(=O)N(C)c1ccc(-c2ccc(C(=O)NCc3ccccc3)cc2)cc1` [Compound I-239] is higher in IC50: 0.607 µM for the first, greater than 30 µM for the second.

`CCC(=O)N1CCc2cc(-c3ccc(C(=O)NCC4CCNCC4)cc3)ccc21` [Compound I-70, N-(piperidin-4-ylmethyl)-4-(1-propionylindolin-5-yl)benzamide] and `CCC(=O)N1CCc2cc(-c3ccc(C(=O)NCC4CCOCC4)cc3)ccc21` [Compound I-191, 4-(1-propionylindolin-5-yl)-N-((tetrahydro-2H-pyran-4-yl)methyl)benzamide] cannot be ordered by IC50: greater than 30 µM for the first, greater than 30 µM for the second.

Compared with `CCC(=O)N1CCc2cc(-c3ccc(C(=O)NCC4CCCO4)cc3)ccc21` (centres unmarked) [Compound I-178], `CC(C)C(=O)N(C)c1ccc(-c2ccc(C(=O)NCc3cccnc3)cc2)cc1` [Compound I-250] is lower in IC50: greater than 30 µM for the first, 1.87 µM for the second.
